Key:
[1] = tested on: A549 cells infected with L. corymbifera; test: L. corymbifera-induced damage of A549 cells (LDH assay); type: cell-based, human; details: 25 μM Mifepristone overnight and/or 25 μM Gefitinib 1 h, 24 h infection (FIG. 14)
[2] = tested on: A549 alveolar epithelial cells infected with R. delemar spores; test: Measurement of host cell endocytosis of R. delemar by A549 cells (Uvitex differential fluorescence); type: cell-based, human; details: for endocytosis of R. delemar spores: A549 cells pretreated 1 h with 25 μM Gefitinib or 25 μg/ml Cetuximab, 3 h infection, vs vehicle or IgG1 control antibody
Procedure: Measurement of host cell endocytosis. 12-mm glass coverslips were seeded with A549 alveolar epithelial cells. […] For controls, host cells will be incubated with DMSO (the solvent used to reconstitute the inhibitor) or 25 μg/ml mouse IgG antibody in parallel. Host cells were then infected with 2×10^5 R. delemar spores. After incubation for 3 h, cells were fixed in 3% paraformaldehyde and stained for 1 h with 1% Uvitex, which specifically binds to chitin in the fungal cell wall. After washing with PBS, coverslips were mounted on a glass slide with a drop of ProLong Gold anti-fade reagent (Molecular Probes) and sealed. The total number of cell-associated organisms (i.e. fungi adhering to the monolayer) per high-powered field were determined by phase-contrast microscopy. The same field will be examined by epifluorescence microscopy, and the number of brightly fluorescent, uninternalized fungi were determined. The number of endocytosed organisms was calculated by subtracting the number of fluorescent fungi from the total number of visible fungi. At least 400 organisms were counted per treatment group in at least 15 different fields per coverslip. Experiments were performed in duplicate or triplicate on at least two separate days.
12-mm glass coverslips in 12 well dishes will be seeded with A549 alveolar epithelial cells. Cells were then pre-treated 1 h with inhibitors. For controls, host cells were incubated with the appropriate amount of diluent used to reconstitute the inhibitor in parallel. Host cells were then infected with 2×10^6 Rdelemar. After incubation for 3 h, cells were fixed in 3% paraformaldehyde and stained for 1 h with 1% Uvitex, which specifically binds to chitin in the fungal cell wall. After washing with PBS, coverslips were mounted on a glass slide with a drop of ProLong Gold anti-fade reagent (Molecular Probes) and sealed. The total number of cell-associated organisms (i.e., fungi adhering to the monolayer) per high-powered field was determined by phase-contrast microscopy. The same exact field was examined by epifluorescence microscopy, and the number of brightly fluorescent, uninternalized fungi will be determined. The number of endocytosed organisms is calculated by subtracting the number of fluorescent organisms from the total number of visible organisms. At least 400 organisms were counted in at least 15 different fields per coverslip. Experiments were performed in duplicate on separate days. Data will be expressed as median f interquartile range.

[3] = tested on: other Mucormycosis-causing fungi; test: In vitro infection with other mucormycosis-causing fungi (FIG. 23); type: cell-based

COc1cc2ncnc(Nc3ccc(F)c(Cl)c3)c2cc1OCCCN1CCOCC1 [Gefitinib]
L. corymbifera-induced damage [1]: significantly decreased
endocytosis of R. delemar spores [2]: significantly reduced
endocytosis of R. delemar spores ([2]; listed as Gefinitib): did not completely block
endocytosis after pre-treatment of R. delemar spore preparations ([2]; spore preparations pre-treated with drug prior to the infection): did not reduce
in vitro infection of other Mucormycosis-causing fungi [3]: Inhibits

Reference: patent US20210284742A1, “METHODS OF TREATING OR PREVENTING MUCORMYCOSIS” (University of Maryland, Baltimore, priority 2018, published 2021)
